What was measured:
Format in all cases: physicochemical
[1] = Saturation / dissolution temperature of contrast agent solution in water
From the text: The injection solution of Compound I is highly supersaturated. The nucleation (precipitation) in the injection solution at storage conditions is strongly undesirable. The physical stability of the solution, i.e. prevention of the nucleation for a certain time at storage conditions, may be improved substantially by heat treatment of the solution well above its saturation temperature for a sufficiently long period of time. A solution in which the concentration of the solute (API) exceeds the equilibrium solute concentration at a given temperature is said to be supersaturated. […] Such solutions are denoted as supersaturated. Saturation temperature is the temperature where all solid API (amorphous and crystalline) apparently dissolves completely. As the solubility of Compound I decreases with decreasing temperature, the supersaturation increases.
For a compound or contrast agent with a defined crystalline state (single polymorph) at one side, and a solvent including dissolved admixtures on the other, the concentration of the agent in the solution in equilibrium with the crystalline state is called solubility. At this concentration the activity of the agent is equal in both phases. A system out of the equilibrium stage tends to change the solution concentration towards the equilibrium (solubility), e.g. dissolve crystals when under-saturated, or crystallize out compound when supersaturated. Normally, the solubility changes, usually increases, with temperature. For the purpose, we define the temperature at which the crystal solubility is equal to the concentration in the particular solution as “dissolution temperature”. When a solution contains crystals, the crystals dissolve at temperatures above the “dissolution temperature”, remaining a crystal free solution. When the amount of the crystals is small, the concentration increase by dissolution may be neglected.

[2] = Solubility in water (comparison)
[3] = Iodide level after steam heat sterilisation, conventional heating regime; conditions: 134° C. for 45 minutes, no reduced pH
Description: During the development of new iodinated X-ray contrast agents, several heating regimes have been tested to find the parameters to be used for the secondary productions. Among these are end heat steam sterilization at 134° C. or 121° C. for 45 minutes or more, pre-heating in the mixing tank above the dissolution temperature (e.g. 110-111° C./330 mg I/ml) using different regimes followed by end heat steam sterilization etc. Although some of these heating regimes might be capable of providing a physically stable solution, they may cause high levels of free iodide due to degeneration of the iodinated X-ray contrast agent (Scheme 1). […] This is above the acceptable level.

[4] = Stability of Compound I at different pH: inorganic iodide and pH after autoclaving; conditions: 320 mg I/ml, 121° C. 120 minutes or 134° C. 60 minutes
Description: Experiments were performed to investigate the level of inorganic iodide generated as a result of degeneration of Compound I as a result of a pH and heating regime. Reference is made to FIGS. 1 and 2. The heat load was controlled by using a BIER-vessel for the steam heat sterilisation. Formulated Compound I (drug product, DP, 320 mg I/ml) was added 25% HCl to obtain 4 series of 6 vials with a pH of 2.0, 3.1, 4.0 and 7.7, respectively.
DP (10 ml) was filled in 10 ml vials. 3 vials from each series were autoclaved at 121° C. for 120 minutes and the remaining 3 vials were autoclaved at 134° C. for 60 minutes. The samples, including 2 reference samples, were subjected to pH and iodide analyses.

[5] = Inorganic iodide in X-ray composition prepared by the process of the invention (400 litre batch); conditions: 320 mg I/ml
Description: 261 kg of Compound I was dissolved in 250 litres of water for injection (WFI) and added 44 g Na2Ca-EDTA.2H2O in the mixing tank (A). HCl 5M was used to set the solution to pH 3. Under these conditions, to the composition underwent heating for 40 minutes at 122° C. […] This solution was cooled to approximately 50° C. and filtered through a 10 kDa ultrafilter. The remaining WFI to yield a solution of 320 mg I/ml of compound I was used to rinse the ultrafilter by dilution of the concentrated retentate. The filtered solution was dispensed and autoclaved for 20 minutes at 121° C. After autoclaving, the concentration of inorganic iodide was 10 μg/ml, which is approximately a fifth of the concentration resulting from a conventional production not using the process of the invention.

Structure (SMILES)	dissolution temperature ([1]; at 330 mg I/ml)	dissolution temperature ([1]; water for injection as solvent, concentration range 270-380 mg I/ml) [°C]	solubility in water compared with iodixanol [2]	iodide levels after steam heat sterilisation [3]	change in pH after autoclaving ([4]; start pH in the range 2-4)	iodide levels after autoclaving ([4]; start pH in the range 2-4)	change in pH after autoclaving ([4]; start pH of 7.7)	iodide levels after autoclaving ([4]; start pH of 7.7)	inorganic iodide concentration relative to conventional production not using the process ([5]; after autoclaving)	concentration of inorganic iodide after autoclaving ([5]; heated 40 minutes at 122° C. at pH 3, then pH 7.3, autoclaved 20 minutes at 121° C.) [ng/mL]	saturation temperature ([1]; solution of about 320 mg I/ml in water)
O=CN(CC(O)CN(C=O)c1c(I)c(C(=O)NCC(O)CO)c(I)c(C(=O)NCC(O)CO)c1I)c1c(I)c(C(=O)NCC(O)CO)c(I)c(C(=O)NCC(O)CO)c1I (centres unmarked) [Compound I, 5-[formyl-[3-[formyl-[3,5-bis(2,3-dihydroxypropylcarbamoyl)-2,4,6-triiodophenyl]amino]-2-hydroxypropyl]amino]-N,N′-bis(2,3-dihydroxypropyl)-2,4,6-triiodobenzene-1,3-dicarboxamide]	110-111 °C	~110	lower solubility in water than iodixanol	75-85 μg I/ml	no significant change in pH	only a minor increase in iodide levels	corresponding drop in pH	high iodide levels	approximately a fifth	10000	–
CC(=O)N(CC(O)CN(C(C)=O)c1c(I)c(C(=O)NCC(O)CO)c(I)c(C(=O)NCC(O)CO)c1I)c1c(I)c(C(=O)NCC(O)CO)c(I)c(C(=O)NCC(O)CO)c1I (centres unmarked) [iodixanol, reference compound]	–	–	–	–	–	–	–	–	–	–	approximately 92 °C

Reference: patent US11185598B2, “Preparation of stabilised x-ray diagnostic composition” (GE HEALTHCARE AS, priority 2010, dated 2021)
